Values quoted from earlier work in patent publication US6011041A, “Use of anhydrovinblastine” (priority 1996, dated 2000).

Experiments:
human rhabdosarcomas = conditions: in vivo; cited from earlier work
[1] = humans; cited from earlier work
tumour = conditions: alkaloids extracted from Vinca rosea; cited from earlier work

SMILES: CC[C@]1(O)C[C@@H]2CN(CCc3c([nH]c4ccccc34)[C@@](C(=O)OC)(c3cc4c(cc3OC)N(C)[C@H]3[C@@](O)(C(=O)OC)[C@H](OC(C)=O)[C@]5(CC)C=CCN6CC[C@]43[C@@H]65)C2)C1 [vinblastine]
- activity in human rhabdosarcomas transplanted in nude mice (human rhabdosarcomas): not active in this system
- dose limiting toxicity [1]: anemia and leucopenia
- antitumour activity (tumour): significant antitumour activity

SMILES: CC[C@]12CN3CCc4c([nH]c5ccccc45)[C@@](C(=O)OC)(c4cc5c(cc4OC)N(C)[C@H]4[C@@](O)(C(=O)OC)[C@H](OC(C)=O)[C@]6(CC)C=CCN7CC[C@]54[C@@H]76)C[C@@H](C3)[C@H]1O2 [vinleurosine]
- antitumour activity (tumour): significant antitumour activity
